Laboratory results: patent US20160115540A1, “PRODRUGS AND DRUGS” (Biogen MA Inc., priority 2013, published 2016)
Where a name gives a salt, the structure may show the parent alone.

Tested on: jejunum
Assay: Transcriptional profiling on Affymetrix GeneChips, single dose, naïve mice: jejunum
Format: in vivo, C57BL/6 mice
Conditions: for Number of differentially expressed genes identified: Jenjunum: Naïve, Single Dose, 100 mpk, vs Vehicle
Experimental: Treated mice were sacrificed at 2, 7, or 12 hours. Tissues (liver, spleen, kidney, jejunum, cortex, hippocampus, striatum and whole blood) were collected and analyzed by transcriptional profiling on mouse Affymetrix GeneChips.
Tissues (liver, spleen, kidney, jejunum, cortex, hippocampus, striatum and whole blood) were collected and analyzed by transcriptional profiling on mouse Affymetrix GeneChips.
Animals were exposed to CO2 and whole blood collected via cardiac puncture. Two 100 μl aliquots of whole blood were collected in 1.5 mL microcentrifuge tubes and snap frozen in liquid nitrogen. Peripheral (liver, spleen, kidney and jejunum) and CNS brain (cerebellum, hippocampus, striatum and cortex) tissues were harvested and snap frozen in liquid nitrogen, with special care taken to collect tissues of similar size and from the same location. All samples were stored at −80° C. until RNA extraction was conducted.
For RNA preparation, frozen tissues were placed in 2 mL RNAse-free 96-well blocks with 1.5 mL QIAzol Lysis Reagent (QIAgen) and a 3.2 mm stainless steel bead (BioSpec Products, Bartlesville, Okla.). Tissues were disrupted for four cycles of 45 seconds in a Mini-Beadbeater (Biospec Products). RNA was extracted in chloroform and the aqueous phase was mixed with an equal volume of 70% ethanol. Extracted RNA was applied to RNeasy 96 plates and purified by the spin method according to the manufacturer's protocol (RNeasy 96 Universal Tissue Protocol, QIAgen, Hilden Germany).
Automated sample amplifications and biotin labelings were carried out using the NuGEN Ovation RNA Amplification system V2 (Cat #3100), Ovation WB reagent (Cat #1300) and Encore Biotin module (Cat #4200) (NuGEN Technologies, Inc, San Carlos, Calif.) according to manufacturer's recommendations using an Arrayplex automated liquid handler (Beckman Coulter, Indianapolis, Ind.). Two micrograms of biotin labeled sscDNA probe were hybridized to Affymetrix GeneChip Affymetrix HT_MG-430_PM plate arrays with modified conditions as described in Allaire et al. Washing and staining of the hybridized arrays were completed as described in the GeneChip Expression analysis technical manual for HT plate arrays using the Genechip® Array Station (Affymetrix, Santa Clara, Calif.) with modifications as described in Allaire et al. The processed GeneChip® plate arrays were scanned using GeneTitan scanner (Affymetrix, Santa Clara, Calif.).
Affymetrix scans were subject to quality control (QC) measures. These tests included a visual inspection of the distribution of raw signal intensities and an assessment of RNA degradation, relative log expression (RLE), and normalized unsealed standard error (NUSE). All sample scans that passed these QC metrics were included in the analysis.
All CEL files were subjected to GC-content-based Robust Multi-array Average (GCRMA) normalization (version 2.20.0) (Irizarry R A, et al. Nucleic Acids Res 2003; 31:e15; Li C, et al. Genome Biol 2001; 2:[…]0032). Expression levels were log (base 2) transformed.
All calculations and analyses were carried out using R (version 2.11.1) and Bioconductor computational tools (Gentleman R. Springer Science+Business Media 2005).

[1] = jejunum, 2 hr after single 100 mg/kg oral dose
[2] = jejunum, 7 hr after single 100 mg/kg oral dose
[3] = jejunum, 12 hr after single 100 mg/kg oral dose

Structure (SMILES): COC(=O)/C=C/C(=O)O [MMF, monomethyl fumarate]
- Gstm7 (1419072_PM_at) differential expression (Jejunum, 7 hr): 1.97
- Htatip2 (1451814_PM_a_at) differential expression (Jejunum, 7 hr): 1.68
- Ifit1 (1450783_PM_at) differential expression (Jejunum, 7 hr): −1.95
- Matn2 (1419442_PM_at) differential expression (Jejunum, 7 hr): 1.59
- Me1 (1416632_PM_at) differential expression (Jejunum, 7 hr): 2.01
- Nqo1 (1423627_PM_at) differential expression (Jejunum, 7 hr): 2.63
- Pgd (1423706_PM_a_at) differential expression (Jejunum, 7 hr): 1.55
- Pgm2 (1437240_PM_at) differential expression (Jejunum, 7 hr): 1.54
- Pir (1429001_PM_at) differential expression (Jejunum, 7 hr): 5.12
- Prss8 (1418320_PM_at) differential expression (Jejunum, 7 hr): 1.75
- Rsad2 (1436058_PM_at) differential expression (Jejunum, 7 hr): −1.81
- Rtp4 (1418580_PM_at) differential expression (Jejunum, 7 hr): −1.61
- Setd4 (1435405_PM_at) differential expression (Jejunum, 7 hr): 2.27
- Slc5a4b (1422757_PM_at) differential expression (Jejunum, 7 hr): 1.79
- Slc35e3 (1428805_PM_at) differential expression (Jejunum, 7 hr): 1.67
- Txnrd1 (1424487_PM_x_at) differential expression (Jejunum, 7 hr): 2.07
- Ugt2b5 (1419622_PM_at) differential expression (Jejunum, 7 hr): 4.50
- Ugt2b36 (1455595_PM_at) differential expression (Jejunum, 7 hr): 2.50
- Abcc3 (1428988_PM_at) differential expression (Jejunum, 12 hr): 2.10
- Acsm5 (1437662_PM_at) differential expression (Jejunum, 12 hr): 1.95
- Akr1c12 (1422000_PM_at) differential expression (Jejunum, 12 hr): 1.52
- Akr1c12 /// Akr1c13 (1450455_PM_s_at) differential expression (Jejunum, 12 hr): 1.76
- Akr1c13 (1418672_PM_at) differential expression (Jejunum, 12 hr): 2.01
- Aldh1a7 (1418601_PM_at) differential expression (Jejunum, 12 hr): 1.74
- Apob (1457554_PM_at) differential expression (Jejunum, 12 hr): −1.54
- Blvrb (1451386_PM_at) differential expression (Jejunum, 12 hr): 1.54
- Ces1e (1419510_PM_at) differential expression (Jejunum, 12 hr): 2.77
- Dio1 (1417991_PM_at) differential expression (Jejunum, 12 hr): −1.51
- Ephx1 (1422438_PM_at) differential expression (Jejunum, 12 hr): 2.17
- Fst (1434458_PM_at) differential expression (Jejunum, 12 hr): 1.94
- G6pd2 /// G6pdx (1422327_PM_s_at) differential expression (Jejunum, 12 hr): 1.83
- Gm3776 /// Gsta1 /// Gsta2 (1421041_PM_s_at) differential expression (Jejunum, 12 hr): 2.09
- Gpx2 (1449279_PM_at) differential expression (Jejunum, 12 hr): 1.54
- Gsr (1421816_PM_at) differential expression (Jejunum, 12 hr): 2.67
- Gss (1441931_PM_x_at) differential expression (Jejunum, 12 hr): 1.55
- Gsta3 (1423436_PM_at) differential expression (Jejunum, 12 hr): 10.80
- Gsta4 (1416368_PM_at) differential expression (Jejunum, 12 hr): 2.66
- Gstm1 (1416416_PM_x_at) differential expression (Jejunum, 12 hr): 3.70
- Gstm2 (1416411_PM_at) differential expression (Jejunum, 12 hr): 2.20
- Gstm4 (1424835_PM_at) differential expression (Jejunum, 12 hr): 5.43
- Gstm6 (1422072_PM_a_at) differential expression (Jejunum, 12 hr): 2.19
- Kif1b (1451642_PM_at) differential expression (Jejunum, 12 hr): −1.51
- Nqo1 (1423627_PM_at) differential expression (Jejunum, 12 hr): 2.34
- Pir (1429001_PM_at) differential expression (Jejunum, 12 hr): 4.19
- Setd4 (1435405_PM_at) differential expression (Jejunum, 12 hr): 1.60
- Slc5a4b (1422757_PM_at) differential expression (Jejunum, 12 hr): 2.16
- Ugt2b5 (1419622_PM_at) differential expression (Jejunum, 12 hr): 5.00
- Ugt2b36 (1455595_PM_at) differential expression (Jejunum, 12 hr): 3.03
- Number of differentially expressed genes identified: Jenjunum (2 h after last dosing): 67
- Number of differentially expressed genes identified: Jenjunum (7 h after last dosing): 74
- Number of differentially expressed genes identified: Jenjunum (12 h after last dosing): 45
- 6-Sep (septin 6) mRNA fold change vs vehicle [1]: 1.56
- Bmp2 mRNA fold change vs vehicle [1]: −1.55
- Figf mRNA fold change vs vehicle [1]: 1.63
- Gabarapl1 mRNA fold change vs vehicle [1]: 1.52
- Hfe mRNA fold change vs vehicle [1]: 1.73
- Hmox1 mRNA fold change vs vehicle [1]: 1.81
- Lpin2 mRNA fold change vs vehicle [1]: 1.61
- Lrp8 mRNA fold change vs vehicle [1]: 2.23
- Prr5l mRNA fold change vs vehicle [1]: −1.64
- Slc2a1 mRNA fold change vs vehicle [1]: 1.68
- Slc48a1 mRNA fold change vs vehicle [1]: 1.62
- Slfn2 mRNA fold change vs vehicle [1]: −1.82
- Sos1 mRNA fold change vs vehicle [1]: −1.57
- St3gal6 mRNA fold change vs vehicle [1]: 1.52
- Tkt mRNA fold change vs vehicle [1]: 1.73
- Tnfaip3 mRNA fold change vs vehicle [1]: −1.67
- Abcc2 mRNA fold change vs vehicle [2]: 1.51
- Asns mRNA fold change vs vehicle [2]: 1.60
- Capn13 mRNA fold change vs vehicle [2]: −1.75
- Enkur mRNA fold change vs vehicle [2]: −1.56
- Fam162a mRNA fold change vs vehicle [2]: 1.67
- Gm14446 mRNA fold change vs vehicle [2]: −1.65
- Gstm7 mRNA fold change vs vehicle [2]: 1.97
- Ifit1 mRNA fold change vs vehicle [2]: −1.95
- Matn2 mRNA fold change vs vehicle [2]: 1.59
- Me1 mRNA fold change vs vehicle [2]: 2.01
- Pgd mRNA fold change vs vehicle [2]: 1.55
- Rsad2 mRNA fold change vs vehicle [2]: −1.81
- Rtp4 mRNA fold change vs vehicle [2]: −1.61
- Akr1c12 mRNA fold change vs vehicle [3]: 1.52
- Apob mRNA fold change vs vehicle [3]: −1.54
- Dio1 mRNA fold change vs vehicle [3]: −1.51
- Ephx1 mRNA fold change vs vehicle [3]: 2.17
- Fst mRNA fold change vs vehicle [3]: 1.94
- Kif1b mRNA fold change vs vehicle [3]: −1.51
